Assay results: ChEMBL document CHEMBL5620386, “Synthesis, biological screening and in silico studies of new N-phenyl-4-(1,3-diaryl-1H-pyrazol-4-yl)thiazol-2-amine derivatives as potential antifungal and antitubercular agents” (Eur J Med Chem, 2023)
≈ marks a conversion by molar mass, not a printed value. Where “and” joins values, the source holds several entries; their conditions need not be identical. Identical values can stand only once. Calls of active or inactive are those of the source. The calls are words filed in the database; no cut-off is given here.

What was measured:
Escherichia coli = experiment: Antimicrobial activity against Escherichia coli NCIM 2574 assessed as zone of inhibition by well diffusion method; assay type: functional
Proteus mirabilis [1] = experiment: Antimicrobial activity against Proteus mirabilis NCIM 2388 assessed as zone of inhibition by well diffusion method; assay type: functional
Bacillus subtilis = experiment: Antimicrobial activity against Bacillus subtilis NCIM 2063 assessed as zone of inhibition by well diffusion method; assay type: functional
Staphylococcus aureus [2] = experiment: Antimicrobial activity against Staphylococcus aureus NCIM 2178 assessed as zone of inhibition by well diffusion method; assay type: functional
Candida albicans = experiment: Antifungal activity against Candida albicans NCIM 3100 assessed as zone of inhibition by well diffusion method; assay type: functional
Aspergillus niger [3] = experiment: Antifungal activity against Aspergillus niger ATCC 504 assessed as zone of inhibition by well diffusion method; assay type: functional
Proteus mirabilis [4] = experiment: Antimicrobial activity against Proteus mirabilis NCIM 2388 assessed as absence of growth by well diffusion method; assay type: functional
Staphylococcus aureus [5] = experiment: Antimicrobial activity against Staphylococcus aureus NCIM 2178 assessed as absence of growth by well diffusion method; assay type: functional
Aspergillus niger [6] = experiment: Antifungal activity against Aspergillus niger ATCC 504 assessed as absence of growth by well diffusion method; assay type: functional
[7] = test system: Mycobacterium tuberculosis; experiment: Antitubercular activity Mycobacterium tuberculosis H37Rv strain ATCC No- 27294 assessed as prevention of color change from blue to pink using Almar Blue measured after 24 hrs by MABA assay; assay type: functional
[8] = Cytotoxicity against mouse 3T3-L1 cells assessed as cell viability at 12.5 ug/ml measured after 24 hrs by MTT assay relative to control; assay type: toxicity, cell-based; conditions: at 12.5 µg/mL, read-out: Activity
[9] = Cytotoxicity against mouse 3T3-L1 cells assessed as cell viability at 25 ug/ml measured after 24 hrs by MTT assay relative to control; assay type: toxicity, cell-based; conditions: at 25 µg/mL, read-out: Activity

Row | Compound | inhibition zone (IZ) (Escherichia coli) | inhibition zone (IZ) (Proteus mirabilis [1]) [mm] | inhibition zone (IZ) (Bacillus subtilis) [mm] | inhibition zone (IZ) (Staphylococcus aureus [2]) [mm] | inhibition zone (IZ) (Candida albicans) [mm] | inhibition zone (IZ) (Aspergillus niger [3]) [mm] | MIC (Proteus mirabilis [4]) [µg/mL] | MIC (Staphylococcus aureus [5]) | MIC (Aspergillus niger [6]) | MIC [7] | viability at 24 h, 12.5 ug/ml [8] [%] | viability at 24 h, 25 ug/ml [9] [%]
1 | Clc1ccc(-c2nn(-c3ccccc3)cc2-c2csc(Nc3ccccc3)n2)cc1 | inactive | 15.2 | 12 | 14 | 11 | 17.4 | 125 (≈ 291 µM) | 125 µg/mL (≈ 291 µM) | 31.2 µg/mL and 72.8 µM | 25 µg/mL and 58.4 µM |  | 
2 | Cc1ccc(-c2nn(-c3ccccc3)cc2-c2csc(Nc3ccc(Cl)cc3)n2)cc1 | inactive | 13.8 | 13.8 | 16 | 10 | 20 |  | 62.5 µg/mL and 141 µM | 15.6 µg/mL and 35.3 µM | 0.8 µg/mL and 1.8 µM | 67.5 | 61.8
3 | Clc1ccc(Nc2nc(-c3cn(-c4ccccc4)nc3-c3ccccc3)cs2)cc1 | inactive | 14.8 | 12.2 | 15.8 | 11.2 | 19.2 | 125 (≈ 291 µM) | 62.5 µg/mL and 146 µM | 15.6 µg/mL and 36.5 µM | 25 µg/mL and 58.4 µM |  | 
4 | Cc1ccc(Nc2nc(-c3cn(-c4ccccc4)nc3-c3ccccc3)cs2)cc1 | inactive | 15 | 12 | 15 | 10.4 | 18.4 | 125 (≈ 306 µM) | 125 µg/mL (≈ 306 µM) | 15.6 µg/mL and 38.3 µM | 50 µg/mL and 122 µM |  | 
5 | Cc1ccc(Nc2nc(-c3cn(-c4ccccc4)nc3-c3ccc(Cl)cc3)cs2)cc1 | inactive | 14 | 12 | 15 | 10.2 | 18.2 | 125 (≈ 282 µM) | 125 µg/mL (≈ 282 µM) | 15.6 µg/mL and 35.3 µM | 1.6 µg/mL and 3.61 µM | 83.8 | 72.9
6 | COc1ccc(Nc2nc(-c3cn(-c4ccc(F)cc4)nc3-c3ccc(Cl)cc3)cs2)cc1 | inactive | 13.2 | 12.2 | 15 | 11.4 | 18.8 |  | 125 µg/mL (≈ 262 µM) | 15.6 µg/mL and 32.8 µM | 1.6 µg/mL and 3.36 µM | 72.9 | 63.1
7 | Fc1ccc(-n2cc(-c3csc(Nc4ccc(Cl)cc4)n3)c(-c3ccccc3)n2)cc1 | 13 mm | 15 | 13 | 16 | 10.8 | 18.8 | 125 (≈ 280 µM) | 62.5 µg/mL and 140 µM | 15.6 µg/mL and 35 µM | 3.12 µg/mL and 7.01 µM | 102 | 46
8 | NNC(=O)c1ccncc1 [ISONIAZID] |  |  |  |  |  |  |  |  |  | 1.6 µg/mL and 11.7 µM |  | 
9 | Cc1ccc(Nc2nc(-c3cn(-c4ccccc4)nc3-c3ccc(C)cc3)cs2)cc1 | inactive | 15 | 13.2 | 13 | 11.4 | 18 | 125 (≈ 296 µM) |  | 15.6 µg/mL and 37 µM | 1.6 µg/mL and 3.79 µM | 70.1 | 
10 | Fc1ccc(-n2cc(-c3csc(Nc4ccccc4)n3)c(-c3ccc(Cl)cc3)n2)cc1 | inactive | 14.2 | 13.4 | 15 | 11 | 18.2 | 125 (≈ 280 µM) | 125 µg/mL (≈ 280 µM) | 15.6 µg/mL and 35 µM | 1.6 µg/mL and 3.58 µM | 69.2 | 62.6
11 | c1ccc(Nc2nc(-c3cn(-c4ccccc4)nc3-c3ccccc3)cs2)cc1 | inactive | 15 | 11.2 | 16 | 11.2 | 18.8 | 125 (≈ 317 µM) | 62.5 µg/mL and 1590 µM | 15.6 µg/mL and 39.6 µM | 1.6 µg/mL and 4.06 µM | 97.5 | 90.5
12 | Fc1ccc(-n2cc(-c3csc(Nc4ccccc4)n3)c(-c3ccccc3)n2)cc1 | inactive | 13.8 | 12 | 15 | 10 | 18.6 |  | 125 µg/mL (≈ 303 µM) | 15.6 µg/mL and 37.9 µM | 12.5 µg/mL and 30.3 µM | 99.5 | 94.8
13 | COc1ccc(Nc2nc(-c3cn(-c4ccccc4)nc3-c3ccccc3)cs2)cc1 | inactive | 14.2 | 12.75 | 15 | 11.6 | 20 | 125 (≈ 294 µM) | 125 µg/mL (≈ 294 µM) | 15.6 µg/mL and 36.8 µM | 25 µg/mL and 58.9 µM |  | 
14 | NC(=O)c1cnccn1 [PYRAZINAMIDE] |  |  |  |  |  |  |  |  |  | 3.12 µg/mL and 25.4 µM |  | 
15 | COc1ccc(Nc2nc(-c3cn(-c4ccc(F)cc4)nc3-c3ccccc3)cs2)cc1 | inactive | 13.8 | 12.4 | 15 | 10.4 | 19.2 |  | 125 µg/mL (≈ 282 µM) | 15.6 µg/mL and 35.3 µM | 3.12 µg/mL and 7.07 µM | 98.2 | 97.2
16 | CC[C@@H](CO)NCCN[C@@H](CC)CO [ETHAMBUTOL] |  |  |  |  |  |  |  |  |  | 1.6 µg/mL and 7.83 µM |  | 
17 | Fc1ccc(-n2cc(-c3csc(Nc4ccc(Cl)cc4)n3)c(-c3ccc(Cl)cc3)n2)cc1 | 11 mm | 13.6 | 12.6 | 15 | 10.4 | 19 |  | 125 µg/mL (≈ 260 µM) | 15.6 µg/mL and 32.5 µM | 1.6 µg/mL and 3.33 µM | 74.4 | 56.7
18 | CO[C@H]1/C=C/O[C@@]2(C)Oc3c(C)c(O)c4c(O)c(c(/C=N/N5CCN(C)CC5)c(O)c4c3C2=O)NC(=O)/C(C)=C\C=C\[C@H](C)[C@H](O)[C@@H](C)[C@@H](O)[C@@H](C)[C@H](OC(C)=O)[C@@H]1C [RIFAMPIN] |  |  |  |  |  |  |  |  |  | 0.8 µg/mL and 0.972 µM |  | 
